In general, IC50 refers to the point on the concentration scale where inhibition reaches its midpoint.

Structures are written as SMILES.

This test relates to A2780 human ovarian cancer cells. The experiment in a line: In vitro cell proliferation assay (CellTiter-Glo, 72 hours). Type of test: cell-based. The procedure: In Vitro Cell Proliferation Assay
A2780 human ovarian and MCF7 human breast cancer cells (1250 cells/well) were seeded in white 384 well-plates in complete medium (RPMI1640 or EMEM plus 10% Fetal bovine serum) and treated with compounds dissolved in 0.1% DMSO, 24 h after seeding. The cells were incubated at 37° C. and 5% CO2 and after 72 hours the plates were processed using CellTiter-Glo assay (Promega) following the manufacturer's instruction.
CellTiter-Glo is a homogenous method based on the quantification of the ATP present, an indicator of metabolitically active cells. ATP is quantified using a system based on luciferase and D-luciferin resulting into light generation. The luminescent signal is proportional to the number of cells present in culture.
Briefly 25 microL/well reagent solution are added to each wells and after 5 minutes shacking microplates are red by a luminometer. The luminescent signal is proportional to the number of cells present in culture.
On to `NC(=O)c1nn(CCF)c2c1CCc1cnc(Nc3ccccc3OC(F)(F)F)nc1-2` [Code A45B2C1Z], for which the IC50 was determined as 0.5 µM.
For `COc1ccc(CO)cc1Nc1ncc2c(n1)-c1c(c(C(N)=O)nn1C)CC2` [Code A47B1C1Z] the value was 0.147 µM; for `Cc1ccc(N2CCN(C)CC2)cc1Nc1ncc2c(n1)-c1c(c(C(=O)O)nn1C)CC2` [Code A98B1C3Z], 1.3 µM.
For `CN(C)CCCN1CCN(c2ccc(OC(F)(F)F)c(Nc3ncc4c(n3)-c3c(c(C(N)=O)nn3C)CC4)c2)CC1` [Code A101B1C1Z], half-maximal inhibition (IC50) was put at 0.52 µM.

The record behind these values is patent US8614220B2, “Substituted pyrazolo-quinazoline derivatives, process for their preparation and their use as kinase inhibitors” (priority 2006, dated 2013).
